According to patent US4737362A, “Hair treatment composition” (Suntory Limited, priority 1983, dated 1988):

Target: testosterone 5α-reductase
Test: 5α-reductase inhibitory activity (conversion of radiolabelled testosterone to 5α-dihydrotestosterone, microsomal enzyme specimen)
Type: biochemical, rats
Conditions: rat prostate microsomes; pH 6.6; 25° C.; 60 minutes; 8.5 pmol labelled testosterone
Method: The 5α-reductase inhibitory activity was determined as follows.
Prostate gland cells of rats were crushed and a specimen of testosterone 5α-reductase was then prepared by separating microsome from the crushed liquid mixture. The conversion of the testosterone to 5α-dihydrotestosterone by the use of the above-prepared enzyme specimen was monitored by radioisotopically labelled testosterone. The reaction mixture was extracted with ethyl acetate and the extract was developed twice by silica gel thin layer chromatography (solvent system, dichloromethane:cyclohexane:acetone=15:4:1). The amount of 5α-dihydrotestosterone was determined from the intensities of the radioactivity.
A 30 μl amount of a 0.05 M phosphate buffer (pH=6.6), 10 μl of an enzyme specimen, 8.5 pmol of labelled testosterone, 50 nmol of a reduced form of NADP (nicotinamide adenine dinucleotide phosphate), and 10 μl of a test sample were mixed (final volume […]). The mixture was incubated at a temperature of 25° C. for 60 minutes.
The reaction was stopped by the addition of 100 μl of ethyl acetate, and the reaction mixture was extracted by vigorous shaking. The extract was developed in the same manner as mentioned above, and the intensity of the radioisotope was measured by using a scintillation counter.
The above-mentioned determination was applied to samples having various concentrations. […]

SMILES	IC50
CC/C=C\C/C=C\C/C=C\CCCCCCCC(=O)O [Linolenic acid]	1600 µM
CCCCCCCCCCCCCCCCCC(=O)O [Stearic acid]	1300 µM
